Assay results taken from patent publication US12110284B2, “Fasoracetam crystalline forms” (The Children's Hospital of Philadelphia, priority 2018, dated 2024).
Read-outs that look alike come from different tables or passages of the source.

Assays:
[1] = DSC enthalpy of fusion of fasoracetam forms; type: physicochemical
Experimental: DSC measurements were performed on a DSC 821 METTLER TOLEDO under continuous nitrogen flow. Perforated aluminium crucibles were used for analysis. Onsets were determined by manually constructing a tangent to the peak and a prolongation of the baseline. Total enthalpies were calculated by manual peak integration using a linear interpolation between the initial and final temperatures of integration. To obtain the normalized enthalpy, the total enthalpy was divided by the total sample mass. Ramp rates were typically done at 5° C./minute Using Burger's Heat of Fusion rule for both hydrated forms (Table 6), they should be monotropically related. Because both hydrates were obtained from different solvents (water and methanol for Forms I and II, respectively), a slurrying experiment where both vials were seeded with the opposite hydrate was performed and left under these conditions for 1 week.

[2] = Slurrying experiment of both hydrates seeded with the opposite hydrate, XRPD analysis; type: physicochemical; conditions: water and methanol slurries seeded with the opposite hydrate, 1 week
Experimental: Using Burger's Heat of Fusion rule for both hydrated forms (Table 6), they should be monotropically related. Because both hydrates were obtained from different solvents (water and methanol for Forms I and II, respectively), a slurrying experiment where both vials were seeded with the opposite hydrate was performed and left under these conditions for 1 week.

[3] = type: physicochemical; conditions: for first onset of weight loss / weight loss continues up to / water loss (initial weight loss): TGA; for first onset of weight loss / weight loss continues up to: nitrogen flow; for water loss (initial weight loss): equivalents of water
Experimental: TGA measurements were carried out on a METTLER TOLEDO TGA/SDTA 851e. Samples were placed in open aluminum oxide crucible. All experiments were performed under nitrogen flow.
A thermal analysis of all forms was performed in order to characterize the fasoracetam forms and to identify the stability of different forms. TGA measurements (FIG. 21) clearly mark the difference between the hydrated and anhydrated form. […] The weight loss continues up to 185° C. When the temperature is increased further, degradation occurs, starting around 260° C. The initial loss corresponds to 1.1 equivalent of water, as expected for a 1:1 stoichiometric hydrate. The slight deviation from the ideal stoichiometric ratio can be attributed to the crystallization conditions (the bulk material was obtained from an aqueous solution and the water remaining on the crystal surface or trapped between crystals is likely to cause the deviation observed). […] Analogous to Form I, degradation occurs which starts around 268° C. The observed water loss here is 0.9 equivalent, which is expected for a stoichiometric hydrate.

[4] = Hygroscopicity of the solid form; type: physicochemical
Experimental: In further embodiments of the disclosure, R-fasoracetam anhydrate is provided. […] This lack of water of crystallization is a characterizing feature of the anhydrate of R-fasoracetam with respect to Form I or Form II. FIG. 13 is an XRPD pattern of the anhydrate and any one or more of the peaks in that XRPD pattern may be used to characterize the anhydrate. Thus, one or more peaks at about 8.9°2θ, about 13.1°2θ, about 15.2°2θ, about 17.8°2θ, about 18.7°2θ, about 20.3°2θ, and about 22.7°2⊖ may be used to characterize the anhydrate form of R-fasoracetam. The anhydrate has an onset melting temperature at about 94° C. Thus, in another embodiment, an onset melting point of about 94° C. together with one or more peaks at about 8.9°2θ, about 13.1°2θ, about 15.2°2θ, about 17.8°2θ, about 18.7°2θ, about 20.3°2θ, and about 22.7°2⊖ may be used to characterize R-fasoracetam anhydrate. R-fasoracetam anhydrate may be further characterized by a diffraction pattern substantially the same as that of FIG. 13. A DSC thermogram of R-fasoracetam anhydrate appears in FIG. 25. The ramp rate was at 10° C. per minute. The R-fasoracetam anhydrate being hygroscopic, the sample in FIG. 25 was obtained by keeping R-fasoracetam monohydrate Form I under vacuum for a prolonged period at a temperature of 65° C.

[5] = Storage of the anhydrate at ambient conditions, conversion tracked daily via XRPD; type: physicochemical; conditions: 1-week period
[6] = cited from earlier work
mGluRs = conditions: in vitro; cited from earlier work

Row | Compound | Enthalpy of Fusion (ΔHfus, J/g) ([1]; listed as Fasoracetam hydrate II) [J/g] | solid form stability in slurry [2] | degradation starts [3] | first onset of weight loss [3] | weight loss continues up to [3] [°C] | water loss (initial weight loss) [3] [equivalent] | Enthalpy of Fusion (ΔHfus, J/g) ([1]; listed as Fasoracetam hydrate I) [J/g] | Enthalpy of Fusion (ΔHfus, J/g) [1] [J/g] | hygroscopicity [4] | conversion of solid form on storage [5] | treatment of further disorders ([6]; subjects having ADHD and 22q11.2 Deletion Syndrome, anxiety, conduct disorder, Tourette's syndrome) | treatment of ADHD ([6]; subjects having a genetic alteration in an mGluR network gene, clinical trial) | activity against mGluRs (mGluRs)
1 | O=C1CC[C@H](C(=O)N2CCCCC2)N1 [Form II, R-fasoracetam monohydrate Form II] | -79.0 | complete solution mediated polymorphic transition from Form II to Form I | around 268 °C | 41 °C | 183 | 0.9 | – | – | – | – | – | – | –
2 | O=C1CC[C@H](C(=O)N2CCCCC2)N1 [Form I, R-fasoracetam monohydrate Form I, reference compound] | – | – | around 260 °C | 41 °C | 185 | 1.1 | -120.9 | – | – | – | – | – | –
3 | O=C1CC[C@H](C(=O)N2CCCCC2)N1 [anhydrate, R-fasoracetam anhydrate] | – | – | around 260 °C | no particular weight loss up until degradation | – | – | – | -76.7 | hygroscopic | conversion to the stable hydrate occurs at ambient conditions over a 1-week period | – | – | –
4 | O=C1CC[C@H](C(=O)N2CCCCC2)N1 [fasoracetam, R-fasoracetam] | – | – | – | – | – | – | – | – | – | – | successful | successfully treated | nonselective activator against all classes of mGluRs
